Test results reported in patent US20110044907A1, “IN VIVO SCREENING ASSAYS” (priority 2009, published 2011).
Counter-ions that a name gives are not always drawn.

Assays:
BxPC-3-GFP tumor cells = test: Surgical orthotopic implantation of BxPC-3-GFP pancreatic tumor cells in nude mice; type: in vivo, mouse; details: female NCr nu/nu mice; AB0023 30 mg/kg IP twice per week 6 weeks; Gemzar 200 mg/kg IP once per week 3 weeks
Description: Tumor formation and metastasis are monitored by fluorescence imaging.
Approximately 75 female nude mice (NCr nu/nu), 5-6 weeks old, are anesthetized by intraperitoneal injection of a solution of 100 mg/kg ketamine and 5 mg/kg xylazine. Under anesthesia, BxPC-3-GFP tumor cells are surgically implanted, by suturing into the pancreas. […] Each group contains 15 animals, and all administrations are intraperitoneal.
Body weight is determined once per week.
At the conclusion of the study, blood is collected by cardiac puncture and one ml is used for preparation of serum.
The other half is snap frozen for RNA isolation.

[1] = test system: MDA-MB-231-luc-D3H2LN cells; test: Breast tumor metastasis model, intracardiac injection, bioluminescent imaging; type: in vivo, mouse; details: AB0023 30 mg/kg IP twice per week; taxol 5 mg/kg daily
Description: In this model system, MDA-MB-231-luc-D3H2LN cells (Caliper Life Sciences, Hopkinton, Mass.), a derivative of a human breast cancer cell line that has been stably transfected with a luciferase gene were introduced into female nude mice by intracardiac injection. The cells are disseminated through the circulation, and the occurrence and location of metastases are determined by in vivo bioluminescent imaging (BLI).
Approximately 80 female nude mice (NCr nu/nu), 8-10 weeks old, were anesthetized by intraperitoneal injection of a solution of 100 mg/kg ketamine and 5 mg/kg xylazine. […] Bioluminescence from whole body and lung projection was measured and expressed as photons per second. If the ratio of whole body luminescence to lung luminescence was less than 3, the mouse was excluded from the study. […]
Ventral and dorsal views of the animals were obtained by in vivo bioluminescent imaging (BLI) on days 0, 7, 10, 13, 16, 21, 24 AND 28; using the IVIS®-Spectrum imaging system (Caliper Life Sciences, Hopkinton, Mass.). Data were analyzed using Living Image 3.0 Software (Caliper Life Sciences, Hopkinton, Mass.).
Body weight was measured once per week for the first two weeks of the study, then three times per week until the conclusion of the study. […]

Row | Structure (SMILES) | mean tumor volume (BxPC-3-GFP tumor cells) | survival advantage compared to vehicle-treated animals [1]
1 | Nc1ccn([C@@H]2O[C@H](CO)[C@@H](O)C2(F)F)c(=O)n1 [Gemzar, gemcitabine-HCl] | reduced | 
2 | CC(=O)O[C@H]1C(=O)[C@@]2(C)[C@H]([C@H](OC(=O)c3ccccc3)[C@]3(O)C[C@H](OC(=O)[C@H](O)[C@@H](NC(=O)c4ccccc4)c4ccccc4)C(C)=C1C3(C)C)[C@]1(OC(C)=O)CO[C@@H]1C[C@@H]2O [taxol] |  | not observed
